Columns and labels:
5-HT6R = 5-HT6R (Homo sapiens, UniProt P50406); assay: [3H]-LSD radioligand binding assay, HEK293 cells stably expressing human 5-HT6R; parameters: expressed in transfected cells; details: mean of three independent experiments
Protocol: Final compounds were evaluated in the [^3H]-LSD binding assay using HEK293 cells with stable expression of human 5-HT6R. […] Because the fluorine atom might affect the affinity at target protein as well as physicochemical and pharmacokinetic properties of compound,[22] fluorine substitution at the 2-phenyl ring was applied. […] The analysis of the binding mode of 18 and 28 (Figure 2A) confirmed that the 2-phenyl moiety is placed in the hydrophobic cavity between transmembrane domains (TMs) 4–6.
(§1) All experiments were carried out according to the previously published procedures.[41]−[43] HEK293 cells stably expressing human 5-HT1A, 5-HT6, 5-HT7b, and D2L receptors (prepared with the use of Lipofectamine 2000) or CHO-K1 cells with plasmid containing the sequence coding for the human serotonin 5-HT2A receptor (PerkinElmer) were maintained at 37 °C in a humidified atmosphere containing 5% CO2 and grown in Dulbecco’s modified Eagle’s medium containing 10% dialyzed fetal bovine serum and 500 μg/mL G418 sulfate. For membrane preparation, cells were cultured in 150 cm^2 flasks, grown to 90% confluence, washed twice with prewarmed to 37 °C phosphate buffered saline (PBS), and centrifuged (200g) in PBS containing 0.1 mM EDTA and 1 mM dithiothreitol. Prior to membrane preparation, pellets were stored at −80 °C. Cell pellets were thawed and homogenized in 10 volumes of assay buffer using an Ultra Turrax tissue homogenizer and centrifuged twice at 35 000g for 15 min at 4 °C, with incubation for 15 min at 37 °C between the centrifugations. The composition of the assay buffers was experimentally selected to achieve the maximum signal window (more details in Supporting Information). All assays were carried out in a total volume of 200 μL in 96-well plates for 1 h at 37 °C except 5-HT1AR and 5-HT2AR which were incubated at room temperature and 27 °C, respectively. The process of equilibration was terminated by rapid filtration through Unifilter plates with a 96-well cell harvester, and radioactivity retained on the filters was quantified on a Microbeta plate reader (PerkinElmer, USA). For displacement studies the assay samples contained the following as radioligands (PerkinElmer, USA): 2.5 nM [^3H]-8-OH-DPAT (135.2 Ci/mmol) for 5-HT1AR; 1 nM [^3H]-ketanserin (53.4 Ci/mmol) for 5-HT2AR; 2 nM [^3H]-LSD (83.6 Ci/mmol) for 5-HT6R; 0.8 nM [^3H]-5-CT (39.2 Ci/mmol) for 5-HT7R or 2.5 nM [^3H]-raclopride (76.0 Ci/mmol) for D2LR. Nonspecific binding was defined in the presence of 10 μM 5-HT in 5-HT1AR and 5-HT7R binding experiments, whereas 20 μM mianserin, 10 μM methiothepine, and 10 μM haloperidol were used in 5-HT2AR, 5-HT6R, and D2LR assays, respectively. Each compound was tested in triplicate at seven concentrations (10^–10–10^–4 M). The inhibition constants (Ki) were calculated from the Cheng–Prusoff equation.[44]

5-HT2AR = target: T1, 5-HT2AR (Homo sapiens, UniProt P28223); assay: [3H]-ketanserin radioligand binding assay, CHO-K1 cells; details: mean of three experiments
T1 construct: host or cells: CHO-K1

5-HT1AR = target: T2, 5-HT1AR (Homo sapiens, UniProt P08908); assay: [3H]-8-OH-DPAT radioligand binding assay, HEK293 cells; details: mean of three experiments
T2 construct: expressed in transfected cells
T2 sequence (P08908 1-422): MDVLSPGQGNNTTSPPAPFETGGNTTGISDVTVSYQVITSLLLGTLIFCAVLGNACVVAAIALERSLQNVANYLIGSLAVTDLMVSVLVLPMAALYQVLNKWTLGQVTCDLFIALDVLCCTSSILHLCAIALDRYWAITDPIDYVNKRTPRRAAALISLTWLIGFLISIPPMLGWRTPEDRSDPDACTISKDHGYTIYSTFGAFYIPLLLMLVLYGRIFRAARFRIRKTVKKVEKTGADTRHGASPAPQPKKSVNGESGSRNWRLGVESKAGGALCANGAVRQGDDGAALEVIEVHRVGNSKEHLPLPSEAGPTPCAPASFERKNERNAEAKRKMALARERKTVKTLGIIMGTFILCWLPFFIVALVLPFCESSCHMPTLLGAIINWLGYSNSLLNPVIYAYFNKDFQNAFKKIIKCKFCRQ
Protocol: as §1

[1] = Metabolic stability in rat liver microsomes; type: in vitro ADME; details: male, pH 7.4, 10 μM compound, read-out: intrinsic clearance
Protocol: Metabolic stability of compounds 27 and 28 was analyzed using incubation systems composed of tested compound (10 μM), rat liver microsomes (RLMs, microsomes from rat male liver, pooled; 0.4 mg/mL; Sigma-Aldrich), NADPH-regenerating system (NADP+, glucose-6-phosphate, and glucose-6-phosphate dehydrogenase in 100 mM potassium buffer, pH 7.4; all from Sigma-Aldrich) and potassium buffer, pH 7.4. […] First, all samples containing incubation mixture (without NADPH-regenerating system) were preincubated in thermoblock at 37 °C for 10 min. Then reaction was initiated by the addition of NADPH-regenerating system. In control samples NADPH-regenerating system was replaced with potassium buffer. Probes were incubated for 30 and 60 min at 37 °C. After addition of internal standard (pentoxifylline, 10 μM) biotransformation process was stopped by addition of perchloric acid. Next, samples were centrifuged and supernatants were analyzed using UPLC/MS (Waters Corporation, Milford, MA). All experiments were run in duplicates. Half-life time was evaluated using nonlinear regression model using GraphPad Prism software, and intrinsic clearance was calculated from the equation Clint = (volume of incubation [μL]/protein in the incubation [mg])0.693/t1/2.[46]

D2R = target: T3, D2R (Homo sapiens, UniProt P14416); assay: [3H]-raclopride radioligand binding assay, HEK293 cells; details: mean of three experiments
T3 construct: expressed in transfected cells
Protocol: as §1

T1 sequence (P28223 whole entry): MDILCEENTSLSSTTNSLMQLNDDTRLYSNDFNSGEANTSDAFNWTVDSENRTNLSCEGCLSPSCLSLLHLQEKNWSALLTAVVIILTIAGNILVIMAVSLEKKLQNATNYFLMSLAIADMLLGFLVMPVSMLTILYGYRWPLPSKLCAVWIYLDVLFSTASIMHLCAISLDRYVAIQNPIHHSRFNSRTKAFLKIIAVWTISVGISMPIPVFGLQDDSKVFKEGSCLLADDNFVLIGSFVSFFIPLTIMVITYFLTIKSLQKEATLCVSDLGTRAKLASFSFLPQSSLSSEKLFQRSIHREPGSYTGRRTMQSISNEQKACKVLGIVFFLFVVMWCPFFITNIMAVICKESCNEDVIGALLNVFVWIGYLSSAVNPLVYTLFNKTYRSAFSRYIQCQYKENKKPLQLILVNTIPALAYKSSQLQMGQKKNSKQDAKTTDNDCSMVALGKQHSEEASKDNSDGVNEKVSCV
Chain of 5-HT6R (P50406 whole entry, the tested form may be a part): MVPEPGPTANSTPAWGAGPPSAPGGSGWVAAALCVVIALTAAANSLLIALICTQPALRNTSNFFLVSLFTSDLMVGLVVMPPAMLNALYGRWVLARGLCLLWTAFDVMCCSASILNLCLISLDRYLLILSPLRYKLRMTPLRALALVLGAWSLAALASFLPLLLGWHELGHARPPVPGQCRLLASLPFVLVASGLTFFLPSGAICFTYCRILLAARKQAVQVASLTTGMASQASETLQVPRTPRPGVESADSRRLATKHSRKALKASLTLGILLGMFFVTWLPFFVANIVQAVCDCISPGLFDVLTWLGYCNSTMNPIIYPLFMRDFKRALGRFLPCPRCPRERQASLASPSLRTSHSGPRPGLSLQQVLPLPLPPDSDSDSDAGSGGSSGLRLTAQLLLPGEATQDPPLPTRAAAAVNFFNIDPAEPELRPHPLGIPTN
T3 sequence (P14416 whole entry): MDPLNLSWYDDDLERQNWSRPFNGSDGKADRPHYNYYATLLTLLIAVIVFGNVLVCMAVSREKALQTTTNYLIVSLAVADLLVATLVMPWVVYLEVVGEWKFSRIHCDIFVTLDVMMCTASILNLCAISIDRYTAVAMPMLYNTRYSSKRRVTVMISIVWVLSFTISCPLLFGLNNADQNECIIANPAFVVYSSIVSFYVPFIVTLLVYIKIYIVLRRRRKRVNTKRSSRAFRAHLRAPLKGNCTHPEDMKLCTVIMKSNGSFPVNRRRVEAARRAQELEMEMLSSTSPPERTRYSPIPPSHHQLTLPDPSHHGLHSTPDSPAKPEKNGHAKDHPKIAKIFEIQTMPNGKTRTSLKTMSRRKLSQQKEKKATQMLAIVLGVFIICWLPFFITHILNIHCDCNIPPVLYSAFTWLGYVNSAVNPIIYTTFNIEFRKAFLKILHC

SMILES	Ki (5-HT6R) [µM]	Ki (5-HT2AR) [µM]	Ki (5-HT1AR) [µM]	microsomal CLint at 10 μM [1] [µL/min/mg]	Ki (D2R) [µM]
O=C(N[C@@H]1CCNC1)c1ccn(S(=O)(=O)c2cccc(Cl)c2)c1-c1ccc(F)cc1 [Compound 27, (R)-2-(4-Fluorophenyl)-1-[(3-chlorophenyl)sulfonyl]-N-(pyrrolidin-3-yl)-1H-pyrrole-3-carboxamide]	0.03	13.5	53.7	0.82	7.08
O=C(N[C@H]1CCNC1)c1ccn(S(=O)(=O)c2cccc(Cl)c2)c1-c1ccc(F)cc1 [Compound 28, (S)-2-(4-Fluorophenyl)-1-[(3-chlorophenyl)sulfonyl]-N-(pyrrolidin-3-yl)-1H-pyrrole-3-carboxamide]	0.022	8.57	61.5	1.03	7.34

From article PMC8041276 (ACS Chemical Neuroscience, 2021)
